In brackets after ≈: the same amount, converted by molar mass.
How the values were obtained:
[1] = tested on: Escherichia coli (E. coli) BAS849; assay: Antibacterial activity, microbroth dilution MIC (Table 1); type: cell-based; conditions: microbroth dilution, super sensitive Gram-negative E. coli BAS849, read-out: MIC, BAS849
Outline: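 Potency is reported as minimum inhibitory concentration in μg/mL, determined by broth microdilution as the lowest level of compound that stops growth visible to the eye.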

[2] = tested on: Staphylococcus aureus (S. aureus) 29213; assay: as above; type: cell-based; conditions: microbroth dilution, Gram-positive S. aureus 29213, read-out: MIC, 29213
Outline: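 Values are MICs (μg/mL): the smallest drug amount at which macroscopically visible bacterial growth is absent under assay conditions, from a microdilution method in broth.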

E. coli 25922 = assay: as above; type: cell-based, Escherichia coli; conditions: Escherichia coli; microbroth dilution; control Gram-negative E. coli 25922 strain; read-out: MIC, 25922
Outline: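 Each strain is exposed to test compound in a microbroth dilution series; visible growth is scored macroscopically, and the lowest growth-free concentration is recorded as MIC in μg/mL.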

E. coli LZ3111 = assay: Antibacterial activity, MIC, quinolone resistant strain (Table 2); type: cell-based; conditions: Escherichia coli, LZ3111, read-out: MIC LZ3111
Outline: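 Strain carries mutations conferring high-level quinolone resistance; tested by microbroth dilution, MIC recorded in μg/mL as lowest concentration preventing visible growth.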

[3] = tested on: Acinetobacter baumannii (A. baumannii) BAA747; assay: Antibacterial activity, MIC (Table 4); type: cell-based; conditions: A. baumannii BAA747, read-out: MIC, BAA747
Outline: (§1)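 MIC in μg/mL by microbroth dilution, scored as the lowest level that suppresses visible growth.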

[4] = tested on: Klebsiella pneumoniae (K. pneumoniae) 35657; assay: Antibacterial activity, MIC (Table 4); type: cell-based; conditions: K. pneumoniae 35657, read-out: MIC, 35657
Outline: as §1

A. baumannii MXX2240 = assay: Antibacterial activity, MIC, resistant strain (Table 4); type: cell-based; conditions: Acinetobacter baumannii, MXX2240; resistant A. baumannii MMX2240, multi-drug resistant clinical isolate; read-out: MIC, MMX2240
Outline: as §1

K. pneumoniae MXX1232 = assay: as above; type: cell-based; conditions: Klebsiella pneumoniae, MXX1232; resistant K. pneumoniae MMX1232, multi-drug resistant clinical isolate; read-out: MIC, MMX1232
Outline: as §1

[5] = tested on: Pseudomonas aeruginosa (P. aeruginosa) 27853; assay: Antibacterial activity, MIC (Table 5); type: cell-based; conditions: P. aeruginosa 27853, read-out: MIC, 27853
Outline: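 Compounds are serially diluted in broth and inoculated with the organism. Growth is then inspected macroscopically, and the lowest concentration showing none is taken as the MIC (μg/mL).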

SMILES | MIC [1] [µg/mL] | MIC [2] [µg/mL] | MIC (E. coli 25922) [µg/mL] | MIC (E. coli LZ3111) [µg/mL] | MIC [3] [µg/mL] | MIC [4] [µg/mL] | MIC (A. baumannii MXX2240) [µg/mL] | MIC (K. pneumoniae MXX1232) [µg/mL] | MIC [5] [µg/mL]
Cc1c(-c2cccc3c2ccn3C)[nH]c(=O)c(C(=O)O)c1O [Cpd 404, 4-hydroxy-5-methyl-6-(1-methyl-1H-indol-4-yl)-2-oxo-1,2-dihydropyridine-3-carboxylic acid] | 3.5 to 12.5 (≈ 11.7 to 41.9 µM) | 12.5 to 150 (≈ 41.9 to 503 µM) | 12.5 to 150 (≈ 41.9 to 503 µM) | 12.5 to 150 (≈ 41.9 to 503 µM) | 12.5 to 150 (≈ 41.9 to 503 µM) | 12.5 to 150 (≈ 41.9 to 503 µM) | 12.5 to 150 (≈ 41.9 to 503 µM) | 12.5 to 150 (≈ 41.9 to 503 µM) | 12.5 to 150 (≈ 41.9 to 503 µM)
CCc1c(-c2cc3ccc(OC)cc3n2C)[nH]c(=O)c(C(=O)O)c1O [Cpd 405, 5-ethyl-4-hydroxy-6-(6-methoxy-1-methyl-1H-indol-2-yl)-2-oxo-1,2-dihydropyridine-3-carboxylic acid] | 3.5 to 12.5 (≈ 10.2 to 36.5 µM) | 3.5 to 12.5 (≈ 10.2 to 36.5 µM) | 12.5 to 150 (≈ 36.5 to 438 µM) | 12.5 to 150 (≈ 36.5 to 438 µM) | 12.5 to 150 (≈ 36.5 to 438 µM) | 12.5 to 150 (≈ 36.5 to 438 µM) | 12.5 to 150 (≈ 36.5 to 438 µM) | 12.5 to 150 (≈ 36.5 to 438 µM) | 12.5 to 150 (≈ 36.5 to 438 µM)
CCc1c(-c2cc3cc(F)ccc3n2C)[nH]c(=O)c(C(=O)O)c1O [Cpd 406, 5-ethyl-6-(5-fluoro-1-methyl-1H-indol-2-yl)-4-hydroxy-2-oxo-1,2-dihydropyridine-3-carboxylic acid] | 1 to 3.5 (≈ 3.03 to 10.6 µM) | 3.5 to 12.5 (≈ 10.6 to 37.8 µM) | 12.5 to 150 (≈ 37.8 to 454 µM) | 12.5 to 150 (≈ 37.8 to 454 µM) | 12.5 to 150 (≈ 37.8 to 454 µM) | 12.5 to 150 (≈ 37.8 to 454 µM) | 12.5 to 150 (≈ 37.8 to 454 µM) | 12.5 to 150 (≈ 37.8 to 454 µM) | 12.5 to 150 (≈ 37.8 to 454 µM)
CCc1ccc2c(c1)cc(-c1[nH]c(=O)c(C(=O)O)c(O)c1CC)n2C [Cpd 407, 5-ethyl-6-(5-ethyl-1-methyl-1H-indol-2-yl)-4-hydroxy-2-oxo-1,2-dihydropyridine-3-carboxylic acid] | 1 to 3.5 (≈ 2.94 to 10.3 µM) | 1 to 3.5 (≈ 2.94 to 10.3 µM) | 12.5 to 150 (≈ 36.7 to 441 µM) | 12.5 to 150 (≈ 36.7 to 441 µM) | 12.5 to 150 (≈ 36.7 to 441 µM) | 12.5 to 150 (≈ 36.7 to 441 µM) | 12.5 to 150 (≈ 36.7 to 441 µM) | 12.5 to 150 (≈ 36.7 to 441 µM) | 12.5 to 150 (≈ 36.7 to 441 µM)
CCc1ccc2cc(-c3[nH]c(=O)c(C(=O)O)c(O)c3CC)n(C)c2c1 [Cpd 408, 5-ethyl-6-(6-ethyl-1-methyl-1H-indol-2-yl)-4-hydroxy-2-oxo-1,2-dihydropyridine-3-carboxylic acid] | 1 to 3.5 (≈ 2.94 to 10.3 µM) | 1 to 3.5 (≈ 2.94 to 10.3 µM) | 12.5 to 150 (≈ 36.7 to 441 µM) | 12.5 to 150 (≈ 36.7 to 441 µM) | 12.5 to 150 (≈ 36.7 to 441 µM) | 12.5 to 150 (≈ 36.7 to 441 µM) | 12.5 to 150 (≈ 36.7 to 441 µM) | 12.5 to 150 (≈ 36.7 to 441 µM) | 12.5 to 150 (≈ 36.7 to 441 µM)
CCCc1ccc2c(c1)cc(-c1[nH]c(=O)c(C(=O)O)c(O)c1CC)n2C [Cpd 409, 5-ethyl-4-hydroxy-6-(1-methyl-5-propyl-1H-indol-2-yl)-2-oxo-1,2-dihydropyridine-3-carboxylic acid] | 1 to 3.5 (≈ 2.82 to 9.88 µM) | 3.5 to 12.5 (≈ 9.88 to 35.3 µM) | 12.5 to 150 (≈ 35.3 to 423 µM) | 12.5 to 150 (≈ 35.3 to 423 µM) | 12.5 to 150 (≈ 35.3 to 423 µM) | 12.5 to 150 (≈ 35.3 to 423 µM) | 12.5 to 150 (≈ 35.3 to 423 µM) | 12.5 to 150 (≈ 35.3 to 423 µM) | 12.5 to 150 (≈ 35.3 to 423 µM)
CCCc1ccc2cc(-c3[nH]c(=O)c(C(=O)O)c(O)c3CC)n(C)c2c1 [Cpd 410, 5-ethyl-4-hydroxy-6-(1-methyl-6-propyl-1H-indol-2-yl)-2-oxo-1,2-dihydropyridine-3-carboxylic acid] | 1 to 3.5 (≈ 2.82 to 9.88 µM) | 3.5 to 12.5 (≈ 9.88 to 35.3 µM) | 12.5 to 150 (≈ 35.3 to 423 µM) | 12.5 to 150 (≈ 35.3 to 423 µM) | 12.5 to 150 (≈ 35.3 to 423 µM) | 12.5 to 150 (≈ 35.3 to 423 µM) | 12.5 to 150 (≈ 35.3 to 423 µM) | 12.5 to 150 (≈ 35.3 to 423 µM) | 12.5 to 150 (≈ 35.3 to 423 µM)
CCc1c(-c2cc3cc(F)c(C)cc3n2C)[nH]c(=O)c(C(=O)O)c1O [Cpd 411, 5-ethyl-6-(5-fluoro-1,6-dimethyl-1H-indol-2-yl)-4-hydroxy-2-oxo-1,2-dihydropyridine-3-carboxylic acid] | 1 to 3.5 (≈ 2.9 to 10.2 µM) | 3.5 to 12.5 (≈ 10.2 to 36.3 µM) | 12.5 to 150 (≈ 36.3 to 436 µM) | 12.5 to 150 (≈ 36.3 to 436 µM) | 12.5 to 150 (≈ 36.3 to 436 µM) | 12.5 to 150 (≈ 36.3 to 436 µM) | 12.5 to 150 (≈ 36.3 to 436 µM) | 12.5 to 150 (≈ 36.3 to 436 µM) | 12.5 to 150 (≈ 36.3 to 436 µM)
CCc1c(-c2ccc3c(c2)cc2n3CC(N)C2)[nH]c(=O)c(C(=O)O)c1O.Cl (stereo not drawn) [Cpd 413, 6-(2-amino-2,3-dihydro-1H-pyrrolo[1,2-a]indol-7-yl)-5-ethyl-4-hydroxy-2-oxo-1,2-dihydropyridine-3-carboxylic acid hydrochloride] | < 1 | 12.5 to 150 | < 1 | 3.5 to 12.5 | 3.5 to 12.5 | < 1 | 12.5 to 150 | 12.5 to 150 | 12.5 to 150
CCc1c(-c2ccc3c(c2)cc2n3CC(NC)CC2)[nH]c(=O)c(C(=O)O)c1O.Cl (stereo not drawn) [Cpd 414, 5-ethyl-4-hydroxy-6-(7-(methylamino)-6,7,8,9-tetrahydropyrido[1,2-a]indol-2-yl)-2-oxo-1,2-dihydropyridine-3-carboxylic acid hydrochloride] | < 1 | 12.5 to 150 | 1 to 3.5 | 3.5 to 12.5 | 3.5 to 12.5 | < 1 | 12.5 to 150 | 12.5 to 150 | 12.5 to 150
